Test results from patent US11319321B2, “[1,2,4]triazolo[1,5-a]pyrimidine compounds as PDE2 inhibitors” (Janssen Pharmaceutica NV, priority 2016, dated 2022).
Read-outs that look alike come from different tables or passages of the source.

Legend:
[1] = molecular target: T1, Human recombinant PDE2A (hPDE2A) (Homo sapiens, UniProt O00408); assay: In vitro assay PDE2A (SPA, 3H-cGMP); assay type: biochemical
T1 construct: made in house; host or cells: Sf9 insect cells (baculovirus)
Method: Human recombinant PDE2A (hPDE2A) was expressed in Sf9 cells using a recombinant rPDE10A baculovirus construct. Cells were harvested after 48 h of infection and the hPDE2A protein was purified by metal chelate chromatography on Ni-sepharose 6FF. Tested compounds were dissolved and diluted in 100% DMSO to a concentration 100 fold of the final concentration in the assay. Compound dilutions (0.4 μl) were added in 384 well plates to 20 μl of incubation buffer (50 mM Tris pH 7.8, 8.3 mM MgCl2, 1.7 mM EGTA). 10 μl of hPDE2A enzyme in incubation buffer was added and the reaction was started by addition of 10 μl substrate to a final concentration of 10 μM cGMP and 0.01 μCi ^3H-cGMP. The reaction was incubated for 45 minutes at room temperature. […] After sedimentation of the beads during 30 minutes the radioactivity was measured in a Perkin Elmer Topcount scintillation counter and results were expressed as cpm. For blanc values the enzyme was omitted from the reaction and replaced by incubation buffer. Control values were obtained by addition of a final concentration of 1% DMSO instead of compound.

hPDE3B = assay: In vitro assay PDE3 (SPA, 3H-cAMP); assay type: biochemical, human; details: 0.4 μM cAMP substrate; for hPDE3B Emax: in % (unit assumed)
hPDE10A2 = hPDE10A2 (Homo sapiens, UniProt Q9Y233); assay: biochemical; details: 60 nM cAMP substrate; for IC50: human clone, read-out: hPDE10A2 or rPDE10A2 pIC50 (converted); for Emax: read-out: hPDE10A2 or rPDE10A2 Emax, human clone
Method: Rat recombinant PDE10A (rPDE10A2) was expressed in Sf9 cells using a recombinant rPDE10A baculovirus construct. Cells were harvested after 48 h of infection and the rPDE10A protein was purified by metal chelate chromatography on Ni-sepharose 6FF. Tested compounds were dissolved and diluted in 100% DMSO to a concentration 100 fold of the final concentration in the assay. Human recombinant PDE10A ([…]) was expressed in Sf9 cells using a recombinant hPDE10A baculovirus that was made and amplified in house. Cells were harvested after 72 h of infection and the hPDE10A protein was purified by metal chelate chromatography on Ni-sepharose. Compound dilutions (0.4 μl) were added in 384 well plates to 20 μl of incubation buffer (50 mM Tris pH 7.8, 8.3 mM MgCl2, 1.7 mM EGTA). 10 μl of rPDE10A or hPDE10A enzyme in incubation buffer was added and the reaction was started by addition of 10 μl substrate to a final concentration of 60 nM cAMP and […] ^3H-cAMP. The reaction was incubated for 60 minutes at room temperature. After incubation, the reaction was stopped with 20 μl of stop solution consisting of 17.8 mg/ml PDE SPA (scintillation proximity assay) beads. After sedimentation of the beads during 30 minutes the radioactivity was measured in a Perkin Elmer Topcount scintillation counter and results were expressed as cpm. For blanc values the enzyme was omitted from the reaction and replaced by incubation buffer. Control values were obtained by addition of a final concentration of 1% DMSO instead of compound. A best fit curve is fitted by a minimum sum of squares method to the plot of % of control value substracted with blanc value versus compound concentration and the half maximal inhibitory concentration (IC50) value is derived from this curve.

PDE2A = molecular target: T2, PDE2A (Rattus norvegicus, UniProt Q01062); assay: PDE2 occupancy by ex-vivo autoradiography with [3H]B-17a; assay type: in vivo; details: po, read-out: PDE2 occupancy at 10 mg/kg
T2 construct: Twenty μm-thick striatal sections were cut; from tissue; host or cells: rat brain, striatal sections
T2 sequence (Q01062 1-928): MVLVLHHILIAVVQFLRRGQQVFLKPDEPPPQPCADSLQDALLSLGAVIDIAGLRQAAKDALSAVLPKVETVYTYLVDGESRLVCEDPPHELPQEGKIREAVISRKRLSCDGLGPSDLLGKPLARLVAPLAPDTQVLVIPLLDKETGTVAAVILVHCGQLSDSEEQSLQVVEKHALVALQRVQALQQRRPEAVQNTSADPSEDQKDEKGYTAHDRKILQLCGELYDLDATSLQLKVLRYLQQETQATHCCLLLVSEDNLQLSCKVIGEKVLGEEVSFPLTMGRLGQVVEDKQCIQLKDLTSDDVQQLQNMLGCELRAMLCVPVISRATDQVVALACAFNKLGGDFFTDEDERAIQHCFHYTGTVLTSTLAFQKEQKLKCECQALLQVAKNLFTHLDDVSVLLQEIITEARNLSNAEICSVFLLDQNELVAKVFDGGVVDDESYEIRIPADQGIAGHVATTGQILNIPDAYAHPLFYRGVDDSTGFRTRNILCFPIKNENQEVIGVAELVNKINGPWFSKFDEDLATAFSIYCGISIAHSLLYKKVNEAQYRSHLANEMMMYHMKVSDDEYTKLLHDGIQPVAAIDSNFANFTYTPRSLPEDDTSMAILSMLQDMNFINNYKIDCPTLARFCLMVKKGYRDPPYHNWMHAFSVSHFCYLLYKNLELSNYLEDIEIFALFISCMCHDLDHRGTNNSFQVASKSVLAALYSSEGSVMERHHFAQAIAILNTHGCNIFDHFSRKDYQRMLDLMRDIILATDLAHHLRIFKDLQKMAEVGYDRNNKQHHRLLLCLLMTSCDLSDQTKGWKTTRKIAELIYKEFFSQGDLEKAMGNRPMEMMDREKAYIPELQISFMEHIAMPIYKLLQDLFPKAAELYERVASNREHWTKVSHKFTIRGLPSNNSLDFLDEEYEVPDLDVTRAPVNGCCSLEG
Method: Brains were immediately removed from the skull and rapidly frozen in dry-ice cooled 2-methylbutane (−40° C.).
After thawing, sections were dried under a cold stream of air and incubated for one minute with 30 nM [^3H]B-17a in Tris-HCl (50 mM, pH7.4) containing 0.3% BSA. Brain sections from drug-treated and vehicle-treated animals were incubated in parallel. […] After incubation, the excess of [^3H]B-17a was washed off in ice-cold buffer 2 times 10 minutes, followed by a quick dip in distilled water. The sections were then dried under a stream of cold air.
Brain sections were loaded in a […] (Biospace, Paris) for 4 h and radioactivity emerging from delineated brain area was quantified using the Beta vision program (Biospace, Paris). Specific binding was determined as the difference between total binding in the striatum and non-specific binding in the cerebellum. Percentage receptor occupancy of the drug administered to the animal corresponded to 100% minus the percentage receptor labeled in the treated animal. For the determination of ED50-values, the percentage of receptor occupancy was plotted against dose and the sigmoidal log dose-effect curve of best fit was calculated by non-linear regression analysis, using the GraphPad Prism program.

[2] = 10 μM cGMP substrate, read-out: hPDE2A pIC50 (converted)
[3] = hPDE2A pIC50, 10 μM cGMP substrate

hPDE10A2, sequence (Q9Y233 267-1055): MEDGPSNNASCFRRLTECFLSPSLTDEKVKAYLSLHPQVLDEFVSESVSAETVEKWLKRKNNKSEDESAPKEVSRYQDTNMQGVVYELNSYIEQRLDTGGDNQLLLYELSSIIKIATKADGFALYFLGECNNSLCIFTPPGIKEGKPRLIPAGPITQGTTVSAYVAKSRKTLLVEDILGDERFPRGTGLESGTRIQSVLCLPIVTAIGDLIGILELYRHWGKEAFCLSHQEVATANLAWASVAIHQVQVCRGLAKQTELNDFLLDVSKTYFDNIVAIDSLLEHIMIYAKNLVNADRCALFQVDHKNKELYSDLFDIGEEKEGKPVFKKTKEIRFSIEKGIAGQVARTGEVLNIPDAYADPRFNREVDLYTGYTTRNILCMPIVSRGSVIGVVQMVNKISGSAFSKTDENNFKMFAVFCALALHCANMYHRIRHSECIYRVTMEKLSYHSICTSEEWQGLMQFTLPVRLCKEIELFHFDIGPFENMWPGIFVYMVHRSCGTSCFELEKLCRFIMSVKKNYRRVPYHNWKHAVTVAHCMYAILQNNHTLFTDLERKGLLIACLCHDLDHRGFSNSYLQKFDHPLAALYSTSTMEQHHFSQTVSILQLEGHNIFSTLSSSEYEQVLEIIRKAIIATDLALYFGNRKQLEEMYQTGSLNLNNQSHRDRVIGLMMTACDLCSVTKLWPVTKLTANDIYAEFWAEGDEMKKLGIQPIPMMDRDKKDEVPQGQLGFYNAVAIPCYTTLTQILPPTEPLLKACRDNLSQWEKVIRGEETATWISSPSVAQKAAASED
T1 sequence (O00408 whole entry): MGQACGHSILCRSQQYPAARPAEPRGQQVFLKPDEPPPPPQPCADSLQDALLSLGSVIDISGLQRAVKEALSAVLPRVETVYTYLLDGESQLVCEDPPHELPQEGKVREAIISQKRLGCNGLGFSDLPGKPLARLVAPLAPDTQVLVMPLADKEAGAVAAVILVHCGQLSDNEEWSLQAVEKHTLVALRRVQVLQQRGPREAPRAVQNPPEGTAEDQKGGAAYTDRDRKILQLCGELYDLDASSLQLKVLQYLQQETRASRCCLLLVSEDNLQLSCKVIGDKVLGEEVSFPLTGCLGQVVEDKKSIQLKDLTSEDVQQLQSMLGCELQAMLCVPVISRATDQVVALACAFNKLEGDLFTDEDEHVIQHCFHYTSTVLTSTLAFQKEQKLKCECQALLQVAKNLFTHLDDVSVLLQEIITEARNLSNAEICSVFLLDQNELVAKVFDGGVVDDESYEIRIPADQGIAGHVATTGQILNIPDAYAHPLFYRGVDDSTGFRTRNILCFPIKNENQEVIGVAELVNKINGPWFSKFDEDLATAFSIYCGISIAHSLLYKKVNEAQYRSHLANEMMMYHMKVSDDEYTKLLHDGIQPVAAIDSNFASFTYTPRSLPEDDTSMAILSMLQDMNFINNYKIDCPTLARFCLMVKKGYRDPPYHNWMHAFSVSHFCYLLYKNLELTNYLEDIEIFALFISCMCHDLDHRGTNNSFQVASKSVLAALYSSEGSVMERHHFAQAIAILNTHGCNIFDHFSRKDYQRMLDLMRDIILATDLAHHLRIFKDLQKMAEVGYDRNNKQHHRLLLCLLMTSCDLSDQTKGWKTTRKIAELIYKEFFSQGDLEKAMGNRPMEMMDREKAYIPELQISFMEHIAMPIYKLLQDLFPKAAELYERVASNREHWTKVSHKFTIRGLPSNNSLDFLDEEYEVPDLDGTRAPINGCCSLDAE

| SMILES | Emax ([1]; 10 μM cGMP substrate) | IC50 [1, 2] | hPDE3B pIC50 (hPDE3B) | hPDE3B Emax (hPDE3B) | IC50 (hPDE10A2) | Emax (hPDE10A2) | receptor occupancy at 10 mg/kg (PDE2A) | IC50 [1, 3] | IC50 [1] |
| --- | --- | --- | --- | --- | --- | --- | --- | --- | --- |
| Cc1cc([C@@H](C)N2CC[C@@H](C)[C@H](c3cc(C(F)F)nc4ncnn34)C2)cc(C2CC2)n1 (relative stereo) [Compound 3] | 100% | 0.0135 µM | <5 | 19 | 1.26 µM | 91% | 21% |  |  |
| C[C@@H]1CCN(CC2CCOCC2)C[C@H]1c1cc(C(F)F)nc2ncnn12.Cl [Compound 26] | 27% |  | <5 | 12 | > 10 µM | 12% |  | ~3.09 µM |  |
| C[C@H]1CCN(CC2CCOCC2)C[C@@H]1c1cc(C(F)F)nc2ncnn12.Cl [Compound 27] | 20% |  | <5 | 3 | > 10 µM | 11% |  | ~4.9 µM |  |
| CC(C)CN1CC[C@@H](C)[C@H](c2cc(C(F)F)nc3ncnn23)C1 [Compound 29] | 3% |  | <5 | −14 | > 10 µM | 3% |  | ~8.71 µM |  |
| C[C@@H]1CCN(Cc2ccc(F)c(C(F)(F)F)c2)C[C@H]1c1cc(C(F)F)nc2ncnn12 [Compound 30] | 99% |  | <5 | 21 | 7.94 µM | 55% |  |  | 0.49 µM |
| C[C@@H]1CCN(Cc2cn(C)c3ccccc23)C[C@H]1c1cc(C(F)F)nc2ncnn12.Cl [Compound 35] | 102% |  | <5 | 22 | 7.59 µM | 53% |  | 0.0479 µM |  |
| C[C@@H]1CCN(Cc2cc3ccccc3o2)C[C@H]1c1cc(C(F)F)nc2ncnn12.Cl [Compound 38] | 88% |  | <5 | 28 | 4.68 µM | 69% |  | 0.162 µM |  |
| C[C@@H]1CCN(Cc2ccc(F)c(F)c2)C[C@H]1c1cc(C(F)F)nc2ncnn12.Cl [Compound 40] | 42% | 1.12 µM | <5 | 10 | > 10 µM | 35% |  |  |  |
| C[C@H]1CCN(Cc2ccc(F)c(F)c2)C[C@@H]1c1cc(C(F)F)nc2ncnn12.Cl [Compound 41] | 33% | 1.95 µM | <5 | 20 | > 10 µM | 15% |  |  |  |
| C[C@@H]1CCN(Cc2ccc(F)c(F)c2)C[C@@H]1c1cc(C(F)F)nc2ncnn12 [Compound 42] | 22% | 3.39 µM | <5 | 19 | > 10 µM | 45% |  |  |  |
| Cc1csc(CN2CC[C@@H](C)[C@H](c3cc(C(F)F)nc4ncnn34)C2)c1.Cl [Compound 43] | 77% |  | <5 | 0 | 6.92 µM | 44% |  | 0.347 µM |  |
| COc1ccc(CN2CC[C@@H](C)[C@H](c3cc(C(F)F)nc4ncnn34)C2)c(OC)c1.Cl [Compound 45] | 49% |  | <5 | 6 | > 10 µM | 37% |  | 0.955 µM |  |
| COc1ccc(CN2CC[C@H](C)[C@@H](c3cc(C(F)F)nc4ncnn34)C2)c(OC)c1.Cl [Compound 46] | 9% |  | <5 | 17 | > 10 µM | -6% |  | 7.24 µM |  |
| COc1ccc(CN2CC[C@@H](C)[C@@H](c3cc(C(F)F)nc4ncnn34)C2)c(OC)c1 [Compound 47] | 25% |  | <5 | 27 | > 10 µM | 37% |  | ~3.47 µM |  |
| C[C@@H]1CCN(Cc2nn(C)c3ccccc23)C[C@H]1c1cc(C(F)F)nc2ncnn12 [Compound 48] | 96% |  | <5 | 23 | > 10 µM | 37% |  | 0.977 µM |  |
| Cc1cc(CN2CCC(C)C(F)(c3cc(C(F)F)nc4ncnn34)C2)cc(C)n1 (stereo not shown) [Compound 51] | 91% |  | 5.11 | 67 | > 10 µM | 28% |  | 2.95 µM |  |
| Cc1nn(C)cc1CN1CC[C@@H](C)[C@H](c2cc(C(F)F)nc3ncnn23)C1.Cl [Compound 52] | 31% |  | <5 | 1 | > 10 µM | 9% |  | ~2.34 µM |  |
| C[C@H]1CCN(Cc2cc3ccccc3o2)C[C@@H]1c1cc(C(F)F)nc2ncnn12.Cl [Compound 55] | 25% |  | <5 | 40 | > 10 µM | 12% |  | 2.24 µM |  |
| Cl.FC(F)Oc1cccc(CN2[C@H]3CC[C@H](c4cc(C(F)F)nc5ncnn45)[C@@H]2CC3)c1 [Compound 56] | 97% |  | <5 | 26 | > 10 µM | 43% |  |  | 0.525 µM |
| Cl.FC(F)c1cc([C@H]2CC[C@H]3CC[C@@H]2N3Cc2ccc(Cl)c(Cl)c2)n2ncnc2n1 [Compound 57] | 100% |  | <5 | 35 | 7.94 µM | 58% |  |  | 0.105 µM |
